PubChem BioAssay (NCI)
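Interpolation was linear, between the two tested concentrations surrounding the appropriate level; five concentrations were tested over 48 hours in 96-well plates. GI50 = concentration required for 50% inhibition of growth. TGI marks complete inhibition of growth.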

Columns and labels:
Test in all cases: inhibition of tumour cell growth, NCI panel, 48 h
HT29 colon = system: HT29 colon
MDA-MB-435 = system: MDA-MB-435
NCI-H23 lung = system: NCI-H23 lung
SK-MEL-5 melanoma = system: SK-MEL-5 melanoma
MOLT-4 leukemia = system: MOLT-4 leukemia
BT-549 breast = system: BT-549 breast
CCRF-CEM leukemia = system: CCRF-CEM leukemia
DU-145 prostate = system: DU-145 prostate
TK-10 renal = system: TK-10 renal
KM12 colon = system: KM12 colon
NCI-H226 lung = system: NCI-H226 lung
M14 melanoma = system: M14 melanoma
LOX IMVI melanoma = system: LOX IMVI melanoma
T-47D breast = system: T-47D breast
SR leukemia = system: SR leukemia
HCC-2998 colon = system: HCC-2998 colon
SK-MEL-28 melanoma = system: SK-MEL-28 melanoma
SF-539 CNS = system: SF-539 CNS
SK-MEL-2 melanoma = system: SK-MEL-2 melanoma
HOP-92 NSCLC = system: HOP-92 NSCLC
UO-31 renal = system: UO-31 renal
EKVX NSCLC = system: EKVX NSCLC
OVCAR-8 ovarian = system: OVCAR-8 ovarian
MDA-MB-231 breast = system: MDA-MB-231 breast
A498 renal = system: A498 renal
OVCAR-5 ovarian = system: OVCAR-5 ovarian
SF-295 CNS = system: SF-295 CNS
IGROV1 ovarian = system: IGROV1 ovarian
UACC-257 melanoma = system: UACC-257 melanoma
SNB-75 CNS = system: SNB-75 CNS
NCI-H460 lung = system: NCI-H460 lung
MALME-3M melanoma = system: MALME-3M melanoma
NCI-H522 lung = system: NCI-H522 lung
SK-OV-3 ovarian = system: SK-OV-3 ovarian
HCT-116 colon = system: HCT-116 colon
NCI/ADR-RES ovarian = system: NCI/ADR-RES ovarian
SNB-19 CNS = system: SNB-19 CNS
RPMI-8226 leukemia = system: RPMI-8226 leukemia
UACC-62 melanoma = system: UACC-62 melanoma
RXF 393 renal = system: RXF 393 renal
PC-3 prostate = system: PC-3 prostate
786-0 renal = system: 786-0 renal
HL-60(TB) leukemia = system: HL-60(TB) leukemia
ACHN renal = system: ACHN renal
U251 CNS = system: U251 CNS
SF-268 CNS = system: SF-268 CNS
COLO 205 colon = system: COLO 205 colon
K-562 leukemia = system: K-562 leukemia
SN12C renal = system: SN12C renal

`COc1ccc2nc3c(n2c1)C(=O)C(=O)c1ccccc1-3` gave a GI50 (HT29 colon) of 2590 nM, a TGI (HT29 colon) of 6190 nM and a GI50 (MDA-MB-435) of 192 nM. For the same compound, the TGI (MDA-MB-435) was 353 nM, the GI50 (NCI-H23 lung) was 1160 nM and the TGI (NCI-H23 lung) was 4210 nM. The GI50 (SK-MEL-5 melanoma) was 1670 nM, the TGI (SK-MEL-5 melanoma) was 3060 nM and the GI50 (MOLT-4 leukemia) was 2430 nM. It also gave a TGI (MOLT-4 leukemia) of 5810 nM, a GI50 (BT-549 breast) of 1390 nM and a TGI (BT-549 breast) of 2690 nM. For the same compound, the GI50 (CCRF-CEM leukemia) was 2600 nM, the TGI (CCRF-CEM leukemia) was 6620 nM and the GI50 (DU-145 prostate) was 1660 nM. The TGI (DU-145 prostate) was 3180 nM, the GI50 (TK-10 renal) was 2620 nM and the TGI (TK-10 renal) was 4780 nM. For the same compound, the GI50 (KM12 colon) was 2050 nM, the TGI (KM12 colon) was 5040 nM and the GI50 (NCI-H226 lung) was 2030 nM. It also gave a TGI (NCI-H226 lung) of 4890 nM, a GI50 (M14 melanoma) of 1750 nM and a TGI (M14 melanoma) of 3320 nM. It also gave a GI50 (LOX IMVI melanoma) of 466 nM, a TGI (LOX IMVI melanoma) of 1890 nM and a GI50 (T-47D breast) of 2020 nM. For the same compound, the TGI (T-47D breast) was 5500 nM, the GI50 (SR leukemia) was 2530 nM and the TGI (SR leukemia) was 6590 nM. The GI50 (HCC-2998 colon) was 1830 nM, the TGI (HCC-2998 colon) was 3630 nM and the GI50 (SK-MEL-28 melanoma) was 1890 nM. The TGI (SK-MEL-28 melanoma) was 3520 nM, the GI50 (SF-539 CNS) was 1820 nM and the TGI (SF-539 CNS) was 3240 nM. For the same compound, the GI50 (SK-MEL-2 melanoma) was 1830 nM, the TGI (SK-MEL-2 melanoma) was 3660 nM and the GI50 (HOP-92 NSCLC) was 3090 nM. For the same compound, the TGI (HOP-92 NSCLC) was 9530 nM, the GI50 (UO-31 renal) was 1310 nM and the TGI (UO-31 renal) was 2620 nM. The GI50 (EKVX NSCLC) was 1800 nM, the TGI (EKVX NSCLC) was 4830 nM and the GI50 (OVCAR-8 ovarian) was 2410 nM. For the same compound, the TGI (OVCAR-8 ovarian) was 9360 nM, the GI50 (MDA-MB-231 breast) was 2530 nM and the TGI (MDA-MB-231 breast) was 10600 nM. The GI50 (A498 renal) was 2440 nM, the TGI (A498 renal) was 6110 nM and the GI50 (OVCAR-5 ovarian) was 1800 nM. The TGI (OVCAR-5 ovarian) was 3320 nM, the GI50 (SF-295 CNS) was 1620 nM and the TGI (SF-295 CNS) was 3030 nM. The GI50 (IGROV1 ovarian) was 1750 nM, the TGI (IGROV1 ovarian) was 5340 nM and the GI50 (UACC-257 melanoma) was 1730 nM. It also gave a TGI (UACC-257 melanoma) of 3130 nM, a GI50 (SNB-75 CNS) of 1400 nM and a TGI (SNB-75 CNS) of 2770 nM. For the same compound, the GI50 (NCI-H460 lung) was 1630 nM, the TGI (NCI-H460 lung) was 3650 nM and the GI50 (MALME-3M melanoma) was 1550 nM. The TGI (MALME-3M melanoma) was 2930 nM, the GI50 (NCI-H522 lung) was 1540 nM and the TGI (NCI-H522 lung) was 3390 nM. The GI50 (SK-OV-3 ovarian) was 1750 nM, the TGI (SK-OV-3 ovarian) was 3570 nM and the GI50 (HCT-116 colon) was 1580 nM. The TGI (HCT-116 colon) was 3700 nM, the GI50 (NCI/ADR-RES ovarian) was 2060 nM and the TGI (NCI/ADR-RES ovarian) was 6580 nM. For the same compound, the GI50 (SNB-19 CNS) was 1980 nM, the TGI (SNB-19 CNS) was 4400 nM and the GI50 (RPMI-8226 leukemia) was 1520 nM. It also gave a TGI (RPMI-8226 leukemia) of 5360 nM, a GI50 (UACC-62 melanoma) of 1470 nM and a TGI (UACC-62 melanoma) of 2900 nM. It also gave a GI50 (RXF 393 renal) of 1840 nM, a TGI (RXF 393 renal) of 3550 nM and a GI50 (PC-3 prostate) of 1520 nM. It also gave a TGI (PC-3 prostate) of 9020 nM, a GI50 (786-0 renal) of 2070 nM and a TGI (786-0 renal) of 4400 nM. For the same compound, the GI50 (HL-60(TB) leukemia) was 2230 nM, the TGI (HL-60(TB) leukemia) was 5570 nM and the GI50 (ACHN renal) was 1460 nM. It also gave a TGI (ACHN renal) of 2770 nM, a GI50 (U251 CNS) of 1510 nM and a TGI (U251 CNS) of 2850 nM. For the same compound, the GI50 (SF-268 CNS) was 2050 nM, the TGI (SF-268 CNS) was 5150 nM and the GI50 (COLO 205 colon) was 2730 nM. For the same compound, the TGI (COLO 205 colon) was 8140 nM, the GI50 (K-562 leukemia) was 939 nM and the TGI (K-562 leukemia) was 6090 nM.

`N=C(N)c1ccc(-c2ccc(-c3ccccc3)s2)s1` was tested, and the GI50 (NCI-H23 lung) was under 10 nM, the TGI (NCI-H23 lung) was 1370 nM and the GI50 (BT-549 breast) was 26.7 nM. It also gave a TGI (BT-549 breast) of 2000 nM, a GI50 (DU-145 prostate) of under 10 nM and a TGI (DU-145 prostate) of 1100 nM. It also gave a GI50 (M14 melanoma) of under 10 nM, a TGI (M14 melanoma) of 15.5 nM and a GI50 (HCC-2998 colon) of 1050 nM. For the same compound, the TGI (HCC-2998 colon) was 2360 nM, the GI50 (SK-MEL-2 melanoma) was 1760 nM and the TGI (SK-MEL-2 melanoma) was 3380 nM. The GI50 (SN12C renal) was 156 nM, the TGI (SN12C renal) was 1950 nM and the GI50 (HOP-92 NSCLC) was 65.5 nM. For the same compound, the TGI (HOP-92 NSCLC) was 2170 nM, the GI50 (MDA-MB-231 breast) was 753 nM and the TGI (MDA-MB-231 breast) was 2500 nM. It also gave a GI50 (A498 renal) of under 10 nM, a TGI (A498 renal) of 1340 nM and a GI50 (OVCAR-5 ovarian) of 374 nM. It also gave a TGI (OVCAR-5 ovarian) of 2450 nM, a GI50 (SF-295 CNS) of 32.1 nM and a TGI (SF-295 CNS) of 273 nM. The GI50 (UACC-257 melanoma) was 156 nM, the TGI (UACC-257 melanoma) was 2310 nM and the GI50 (MALME-3M melanoma) was 1170 nM. It also gave a TGI (MALME-3M melanoma) of 2590 nM, a GI50 (UACC-62 melanoma) of 15.6 nM and a TGI (UACC-62 melanoma) of 1300 nM. For the same compound, the GI50 (PC-3 prostate) was 249 nM, the TGI (PC-3 prostate) was 2030 nM and the GI50 (HL-60(TB) leukemia) was 28.7 nM. For the same compound, the TGI (HL-60(TB) leukemia) was 1430 nM.
